Data as given in PubChem BioAssay (NCI).
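Step 1: Grow cells in 96-well plates. Step 2: Expose to compound for 48 hours at 5 concentrations. Step 3: Interpolate endpoints linearly; if unreached, use highest concentration. The concentration for 50% growth inhibition is given as GI50. TGI denotes the concentration required for complete inhibition of growth.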

What was measured:
Experiment in all cases: DTP human tumour cell line panel, 48 h
BT-549 breast = test system: BT-549 breast
SK-OV-3 ovarian = test system: SK-OV-3 ovarian
COLO 205 colon = test system: COLO 205 colon
K-562 leukemia = test system: K-562 leukemia
NCI-H23 lung = test system: NCI-H23 lung
HCT-116 colon = test system: HCT-116 colon
T-47D breast = test system: T-47D breast
SN12C renal = test system: SN12C renal
786-0 renal = test system: 786-0 renal
IGROV1 ovarian = test system: IGROV1 ovarian
MDA-MB-231 breast = test system: MDA-MB-231 breast
HOP-92 NSCLC = test system: HOP-92 NSCLC
A549 NSCLC = test system: A549 NSCLC
UO-31 renal = test system: UO-31 renal
SNB-75 CNS = test system: SNB-75 CNS
SF-539 CNS = test system: SF-539 CNS
HT29 colon = test system: HT29 colon
HCC-2998 colon = test system: HCC-2998 colon
UACC-257 melanoma = test system: UACC-257 melanoma
U251 CNS = test system: U251 CNS
LOX IMVI melanoma = test system: LOX IMVI melanoma
SF-295 CNS = test system: SF-295 CNS
CCRF-CEM leukemia = test system: CCRF-CEM leukemia
A498 renal = test system: A498 renal
OVCAR-4 ovarian = test system: OVCAR-4 ovarian
OVCAR-5 ovarian = test system: OVCAR-5 ovarian
SR leukemia = test system: SR leukemia
SK-MEL-2 melanoma = test system: SK-MEL-2 melanoma
NCI-H226 lung = test system: NCI-H226 lung
OVCAR-3 ovarian = test system: OVCAR-3 ovarian
HCT-15 colon = test system: HCT-15 colon
NCI/ADR-RES ovarian = test system: NCI/ADR-RES ovarian
TK-10 renal = test system: TK-10 renal
MOLT-4 leukemia = test system: MOLT-4 leukemia
HL-60(TB) leukemia = test system: HL-60(TB) leukemia
SF-268 CNS = test system: SF-268 CNS
HOP-62 NSCLC = test system: HOP-62 NSCLC
OVCAR-8 ovarian = test system: OVCAR-8 ovarian
SW-620 colon = test system: SW-620 colon
PC-3 prostate = test system: PC-3 prostate
HS 578T breast = test system: HS 578T breast
MDA-MB-435 = test system: MDA-MB-435
SK-MEL-5 melanoma = test system: SK-MEL-5 melanoma
RPMI-8226 leukemia = test system: RPMI-8226 leukemia
SK-MEL-28 melanoma = test system: SK-MEL-28 melanoma
MALME-3M melanoma = test system: MALME-3M melanoma
EKVX NSCLC = test system: EKVX NSCLC
RXF 393 renal = test system: RXF 393 renal
MCF7 breast = test system: MCF7 breast
SNB-19 CNS = test system: SNB-19 CNS
UACC-62 melanoma = test system: UACC-62 melanoma
ACHN renal = test system: ACHN renal
NCI-H522 lung = test system: NCI-H522 lung
KM12 colon = test system: KM12 colon
NCI-H460 lung = test system: NCI-H460 lung
M14 melanoma = test system: M14 melanoma
DU-145 prostate = test system: DU-145 prostate

For `CC(=O)c1nc(-c2ccc(C[C@@H](CNC(=O)CN(C)C)NC(=O)c3ccc(OC(C)C)c(Cl)c3)cc2)cn1C`, the GI50 (BT-549 breast) was 0.285 µM, the TGI (BT-549 breast) was 19.5 µM and the GI50 (SK-OV-3 ovarian) was 0.0346 µM. The TGI (SK-OV-3 ovarian) was 16.1 µM, the GI50 (COLO 205 colon) was 0.0292 µM and the TGI (COLO 205 colon) was 3.84 µM. It also gave a GI50 (K-562 leukemia) of less than 0.0196 µM, a TGI (K-562 leukemia) of 12.9 µM and a GI50 (NCI-H23 lung) of 0.0647 µM. It also gave a TGI (NCI-H23 lung) of 21.1 µM, a GI50 (HCT-116 colon) of 0.0393 µM and a TGI (HCT-116 colon) of 13.1 µM. For the same compound, the GI50 (T-47D breast) was 0.0538 µM, the TGI (T-47D breast) was 20.1 µM and the GI50 (SN12C renal) was 0.0579 µM. For the same compound, the TGI (SN12C renal) was 17.1 µM, the GI50 (786-0 renal) was 0.0851 µM and the TGI (786-0 renal) was 17.1 µM. The GI50 (IGROV1 ovarian) was 0.896 µM, the TGI (IGROV1 ovarian) was 21.9 µM and the GI50 (MDA-MB-231 breast) was 0.0535 µM. It also gave a TGI (MDA-MB-231 breast) of 8.75 µM, a GI50 (HOP-92 NSCLC) of 1.52 µM and a TGI (HOP-92 NSCLC) of 13.8 µM. It also gave a GI50 (A549 NSCLC) of 0.0518 µM, a TGI (A549 NSCLC) of 19.1 µM and a GI50 (UO-31 renal) of 0.723 µM. It also gave a TGI (UO-31 renal) of 17.6 µM, a GI50 (SNB-75 CNS) of 0.0761 µM and a TGI (SNB-75 CNS) of 13.9 µM. It also gave a GI50 (SF-539 CNS) of 0.0341 µM, a TGI (SF-539 CNS) of 3.03 µM and a GI50 (HT29 colon) of 0.024 µM. The TGI (HT29 colon) was 12.5 µM, the GI50 (HCC-2998 colon) was 0.134 µM and the TGI (HCC-2998 colon) was 21.8 µM. For the same compound, the GI50 (UACC-257 melanoma) was 9.58 µM, the TGI (UACC-257 melanoma) was 24.3 µM and the GI50 (U251 CNS) was 0.0215 µM. For the same compound, the TGI (U251 CNS) was 16.7 µM, the GI50 (LOX IMVI melanoma) was 0.16 µM and the TGI (LOX IMVI melanoma) was 16.5 µM. For the same compound, the GI50 (SF-295 CNS) was 0.0338 µM, the TGI (SF-295 CNS) was 7.75 µM and the GI50 (CCRF-CEM leukemia) was 0.0447 µM. It also gave a TGI (CCRF-CEM leukemia) of 34.7 µM, a GI50 (A498 renal) of 0.0407 µM and a TGI (A498 renal) of 2.04 µM. It also gave a GI50 (OVCAR-4 ovarian) of 0.842 µM, a TGI (OVCAR-4 ovarian) of 22.9 µM and a GI50 (OVCAR-5 ovarian) of 0.0618 µM. The TGI (OVCAR-5 ovarian) was 18.6 µM, the GI50 (SR leukemia) was 0.0506 µM and the TGI (SR leukemia) was 12.6 µM. For the same compound, the GI50 (SK-MEL-2 melanoma) was 0.061 µM, the TGI (SK-MEL-2 melanoma) was 15.5 µM and the GI50 (NCI-H226 lung) was 12.6 µM. The TGI (NCI-H226 lung) was 33.9 µM, the GI50 (OVCAR-3 ovarian) was 0.0332 µM and the TGI (OVCAR-3 ovarian) was 13.3 µM. The GI50 (HCT-15 colon) was 0.0899 µM, the TGI (HCT-15 colon) was 19.3 µM and the GI50 (NCI/ADR-RES ovarian) was 0.511 µM. It also gave a TGI (NCI/ADR-RES ovarian) of 18.3 µM, a GI50 (TK-10 renal) of 12.1 µM and a TGI (TK-10 renal) of 25 µM. The GI50 (MOLT-4 leukemia) was 0.0406 µM, the TGI (MOLT-4 leukemia) was 15 µM and the GI50 (HL-60(TB) leukemia) was 0.0223 µM. For the same compound, the TGI (HL-60(TB) leukemia) was 0.0719 µM, the GI50 (SF-268 CNS) was 0.242 µM and the TGI (SF-268 CNS) was 22.7 µM. The GI50 (HOP-62 NSCLC) was 0.0614 µM, the TGI (HOP-62 NSCLC) was 16.9 µM and the GI50 (OVCAR-8 ovarian) was 0.0617 µM. The TGI (OVCAR-8 ovarian) was 23.4 µM, the GI50 (SW-620 colon) was 0.0663 µM and the TGI (SW-620 colon) was 20.4 µM. It also gave a GI50 (PC-3 prostate) of 0.0652 µM, a TGI (PC-3 prostate) of 19.6 µM and a GI50 (HS 578T breast) of 0.0615 µM. For the same compound, the TGI (HS 578T breast) was 21.3 µM, the GI50 (MDA-MB-435) was 0.0297 µM and the TGI (MDA-MB-435) was 14 µM. For the same compound, the GI50 (SK-MEL-5 melanoma) was 0.0707 µM, the TGI (SK-MEL-5 melanoma) was 5.51 µM and the GI50 (RPMI-8226 leukemia) was 0.0413 µM. The TGI (RPMI-8226 leukemia) was 23.2 µM, the GI50 (SK-MEL-28 melanoma) was 8.01 µM and the TGI (SK-MEL-28 melanoma) was 22.6 µM. For the same compound, the GI50 (MALME-3M melanoma) was 0.277 µM, the TGI (MALME-3M melanoma) was 18.2 µM and the GI50 (EKVX NSCLC) was 0.0455 µM. The TGI (EKVX NSCLC) was 17.8 µM, the GI50 (RXF 393 renal) was 0.0628 µM and the TGI (RXF 393 renal) was 16.6 µM. It also gave a GI50 (MCF7 breast) of 0.0398 µM, a TGI (MCF7 breast) of 14.4 µM and a GI50 (SNB-19 CNS) of 0.0439 µM. For the same compound, the TGI (SNB-19 CNS) was 17.7 µM, the GI50 (UACC-62 melanoma) was 0.0587 µM and the TGI (UACC-62 melanoma) was 19.1 µM. The GI50 (ACHN renal) was 1.01 µM, the TGI (ACHN renal) was 20.2 µM and the GI50 (NCI-H522 lung) was less than 0.0181 µM. The TGI (NCI-H522 lung) was 13.8 µM, the GI50 (KM12 colon) was 0.0662 µM and the TGI (KM12 colon) was 21.1 µM. For the same compound, the GI50 (NCI-H460 lung) was 0.0291 µM, the TGI (NCI-H460 lung) was 11.8 µM and the GI50 (M14 melanoma) was 0.0317 µM. The TGI (M14 melanoma) was 2.54 µM, the GI50 (DU-145 prostate) was 0.032 µM and the TGI (DU-145 prostate) was 11.4 µM.
